For orientation: pIC50 means the IC50 on a negative log10 scale, so that one unit is a factor of ten.

This note sets out measurements from patent US9540392B2, “Thienopyrimidines” (BAYER PHARMA AKTIENGESELLSCHAFT, priority 2012, dated 2017).

The target of one test is T1, human full-length MKNK1 (Homo sapiens, UniProt Q9BUB5, T385D).
T1 construct: GST (N); purchased Carna Biosciences 02-145; host or cells: insect cells (baculovirus expression system)
Kind of test: MKNK1 kinase high ATP assay (TR-FRET). Conditions: 2 mM ATP, after preincubation with MKNK1; read-out: MKNK1 IC50 (MKNK1 high ATP). It counts as biochemical. The gist of the method: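 Compound was preincubated 15 min at 22° C. with MKNK1 in 50 mM HEPES pH 7.5, 5 mM MgCl2, 1.0 mM DTT, then the reaction ran 30 min at 22° C. with 2 mM ATP and 0.06 μM biotinylated peptide (final).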
For orientation: TR-FRET usually uses a lanthanide donor and a delayed reading to cut background.

The test system of test [1] is eIF4E Ser209 phosphorylation in A549 cells. Kind of test: AlphaScreen SureFire eIF4E Ser209 phosphorylation assay in A549 cells with 20% FCS stimulation. In kind it is cell-based. The note with it: Homo sapiens, read-out: pEIF4e (IC50 of the EIF4e phosphorylation). The text has this: The AlphaScreen SureFire eIF4E Ser209 phoshorylation assay is used to measure the phosphorylation of endogenous eIF4E in cellular lysates. The AlphaScreen SureFire technology allows the detection of phosphorylated proteins in cellular lysates. In this assay, sandwich antibody complexes, which are only formed in the presence of the analyte (p-eIF4E Ser209), are captured by AlphaScreen donor and acceptor beads, bringing them into close proximity. The excitation of the donor bead provokes the release of singlet oxygen molecules that triggers a cascade of energy transfer in the Acceptor beads, resulting in the emission of light at 520-620 nm.
Surefire EIF4e Alphascreen in A549 cells with 20% FCS stimulation
For the assay the AlphaScreen SureFire p-eIF4E Ser209 10K Assay Kit and the AlphaScreen ProteinA Kit (for 10K assay points) both from Perkin Elmer were used. On day one 50.000 A549 cells were plated in a 96-well plate in 100 μL per well in growth medium (DMEM/Hams' F12 with stable Glutamin, 10% FCS) and incubated at 37° C. After attachment of the cells, medium was changed to starving medium (DMEM, 0.1% FCS, without Glucose, with Glutamin, supplemented with 5 g/L Maltose). On day two, test compounds were serially diluted in 50 μL starving medium with a final DMSO concentration of 1% and were added to A549 cells in test plates at a final concentration range from as high 10 μM to as low 10 nM depending on the activities of the tested compounds. Treated cells were incubated at 37° C. for 2 h. 37 ul FCS was added to the wells (=final FCS concentration 20%) for 20 min. Then medium was removed and cells were lysed by adding 50 μL lysis buffer. Plates were then agitated on a plate shaker for 10 min. After 10 min lysis time, 4 μL of the lysate is transferred to a 384 well plate (Proxiplate from Perkin Elmer) and 5 μL Reaction Buffer plus Activation Buffer mix containing AlphaScreen Acceptor beads was added. Plates were sealed with TopSeal-A adhesive film, gently agitated on a plate shaker for 2 hours at room temperature. Afterwards 2 μL Dilution buffer with AlphaScreen Donor beads were added under subdued light and plates were sealed again with TopSeal-A adhesive film and covered with foil. Incubation takes place for further 2 h gently agitation at room temperature. Plates were then measured in an EnVision reader (Perkin Elmer) with the AlphaScreen program. Each data point (compound dilution) was measured as triplicate.
The IC50 values were determined by means of a 4-parameter fit using the company's own software.
(In Alpha technology, singlet oxygen from a donor bead excites a nearby acceptor bead.)

The subject of test [2] is 221 kinases other than MKNK. As to the kind of experiment: Kinase selectivity profiling (Merck Millipore KinaseProfiler). The note with it: compound at 1 μM. It counts as biochemical. The protocol: Compounds of the present invention show a higher kinase inhibition selectivity than compounds disclosed in the patent applications WO 2010/023181 A1, WO 2011/104334 A1, WO 2011/104337 A1, WO 2011/104338 A1 and WO 2011/104340 A1 (Boehringer Ingelheim).
The compounds were tested at a concentration of 1 μM using 221 kinases different from MKNK. Kinase activity is expressed as a percentage of the mean kinase activity in the positive control samples. The positive control value is considered to be 100%, and all test samples are measured in relation to this value. For example, a result of 40% means that, in comparison to the positive control sample, 40% kinase activity remains in the presence of the test compound.
Table 6 lists the fraction number of 221 investigated kinases with regard to their remaining activity in the presence of 1 μM of investigated compounds.
The compound described in example 10 is compared to the compound N-[3-(dimethylamino)propyl]-4-[(4-fluoro-2-isopropoxyphenyl)amino]-5-methylthieno[2,3-d]pyrimidine-6-carboxamide which served as reference compound (ref) and has been described in WO 2010/23181, WO 2011/104340 and US 2011/212103.

pIC50: −log10 of the molar value.

T1 sequence (Q9BUB5 1-424 isoform Q9BUB5-2 T344D): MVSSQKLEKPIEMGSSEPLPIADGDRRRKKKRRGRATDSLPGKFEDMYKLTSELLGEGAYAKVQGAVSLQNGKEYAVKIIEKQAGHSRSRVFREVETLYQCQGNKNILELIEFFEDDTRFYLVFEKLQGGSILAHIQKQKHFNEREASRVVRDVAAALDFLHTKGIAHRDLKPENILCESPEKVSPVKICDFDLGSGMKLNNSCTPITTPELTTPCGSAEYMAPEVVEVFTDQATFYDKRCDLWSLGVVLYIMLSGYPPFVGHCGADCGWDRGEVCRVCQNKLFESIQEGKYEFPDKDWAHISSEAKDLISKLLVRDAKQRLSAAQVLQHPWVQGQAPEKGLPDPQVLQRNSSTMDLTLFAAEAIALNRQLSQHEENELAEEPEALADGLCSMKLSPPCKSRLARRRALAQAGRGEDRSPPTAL

In the case of `COc1cc2[nH]ncc2cc1Nc1ncnc2sc3c(c12)CCC(C(=O)N(C)C)C3` (racemic) [Example 64, (RS)-4-[(6-Methoxy-1H-indazol-5-yl)amino]-N,N-dimethyl-5,6,7,8-tetrahydro[1]benzothieno[2,3-d]pyrimidine-7-carboxamide], the pIC50 on human full-length MKNK1 was 9.10; in test [1], 7.29.
On the same counts, the results for `COc1cc2[nH]ncc2cc1Nc1ncnc2sc3c(c12)CCC(C(=O)N1CCN(C)CC1)C3` (racemic) [Example 65, (RS)-{4-[(6-Methoxy-1H-indazol-5-yl)amino]-5,6,7,8-tetrahydro[1]benzothieno[2,3-d]pyrimidin-7-yl}(4-methylpiperazin-1-yl)methanone] are 9.30 and 6.46.
On the same counts, the results for `COc1cc2[nH]ncc2cc1Nc1ncnc2sc3c(c12)CCC(C(=O)NC(C)C)C3` (racemic) [Example 66, (RS)-4-[(6-Methoxy-1H-indazol-5-yl)amino]-N-(propan-2-yl)-5,6,7,8-tetrahydro[1]benzothieno[2,3-d]pyrimidine-7-carboxamide] are 8.80 and 7.21.
With `CC(C)Oc1cc2[nH]ncc2cc1Nc1ncnc2sc3c(c12)CCC(C(=O)N(C)C)C3` (racemic) [Example 70, (RS)—N,N-Dimethyl-4-{[6-(propan-2-yloxy)-1H-indazol-5-yl]amino}-5,6,7,8-tetrahydro[1]benzothieno[2,3-d]pyrimidine-7-carboxamide], the values for the negative logarithm of the IC50 (pIC50) (on human full-length MKNK1; in test [1]) were 9.40 and 7.05, respectively.
For `CC(C)Oc1cc2[nH]ncc2cc1Nc1ncnc2sc3c(c12)CCC(C(=O)N1CCN(C)CC1)C3` (racemic) [Example 71, (RS)-(4-Methylpiperazin-1-yl)(4-{[6-(propan-2-yloxy)-1H-indazol-5-yl]amino}-5,6,7,8-tetrahydro[1]benzothieno[2,3-d]pyrimidin-7-yl)methanone], in that order: 9.30 and 7.49.
For `CC(C)NC(=O)C1CCc2c(sc3ncnc(Nc4cc5cn[nH]c5cc4OC(C)C)c23)C1` (racemic) [Example 72, (RS)—N-(Propan-2-yl)-4-{[6-(propan-2-yloxy)-1H-indazol-5-yl]amino}-5,6,7,8-tetrahydro[1]benzothieno[2,3-d]pyrimidine-7-carboxamide], in that order: 9.22 and 7.12.
Turning to `Cc1ccccc1NC(=O)C1CCc2c(sc3ncnc(Nc4ccc5[nH]ncc5c4)c23)C1` (racemic) [Example 75, (RS)-4-(1H-Indazol-5-ylamino)-N-(2-methylphenyl)-5,6,7,8-tetrahydro[1]benzothieno[2,3-d]pyrimidine-7-carboxamide], the negative logarithm of the IC50 (pIC50) was 8.57 at human full-length MKNK1 and 6.66 in test [1].
For the compound `O=C(NCc1cccc(C(F)(F)F)c1)C1CCc2c(sc3ncnc(Nc4ccc5[nH]ncc5c4)c23)C1` (stereo not shown) [Example 9, 4-(1H-indazol-5-ylamino)-N-[3-(trifluoromethyl)benzyl]-5,6,7,8-tetrahydro[1]benzothieno[2,3-d]pyrimidine-7-carboxamide], the pIC50 on human full-length MKNK1 was 8.52; in test [1], 6.77.
Regarding `CN(C)C(=O)C1CCc2c(sc3ncnc(Nc4ccc5[nH]ncc5c4)c23)C1` (stereo not shown) [Example 10, 4-(1H-indazol-5-ylamino)-N,N-dimethyl-5,6,7,8-tetrahydro[1]benzothieno[2,3-d]pyrimidine-7-carboxamide], the pIC50 on human full-length MKNK1 was 7.92. In addition, in test [2], the “Fraction number of 221 kinases with remaining activity >30% and <80%” value is 4/221; the “Fraction number of 221 kinases with remaining activity ≦30%” value is given as 0/221; the “Fraction number of 221 kinases with remaining activity ≧80%” value is reported as 217/221.
For the compound `COc1ccccc1NC(=O)C1CCc2c(sc3ncnc(Nc4ccc5[nH]ncc5c4)c23)C1` (stereo not shown) [Example 12, 4-(1H-indazol-5-ylamino)-N-(2-methoxyphenyl)-5,6,7,8-tetrahydro[1]benzothieno[2,3-d]pyrimidine-7-carboxamide], the negative-log IC50 (pIC50) on human full-length MKNK1 was 8.10; in test [1], 6.60.
On the same counts, the results for `Cc1cccc(NC(=O)C2CCc3c(sc4ncnc(Nc5ccc6[nH]ncc6c5)c34)C2)c1` (stereo not shown) [Example 16, 4-(1H-indazol-5-ylamino)-N-(3-methylphenyl)-5,6,7,8-tetrahydro[1]benzothieno[2,3-d]pyrimidine-7-carboxamide] are 8.30 and 6.43.
For `O=C(NCc1cccc(F)c1)C1CCc2c(sc3ncnc(Nc4ccc5[nH]ncc5c4)c23)C1` (stereo not shown) [Example 18, N-(3-Fluorobenzyl)-4-(1H-indazol-5-ylamino)-5,6,7,8-tetrahydro[1]benzothieno-[2,3-d]pyrimidine-7-carboxamide], in that order: 8.70 and 6.39.
For `Cc1cccc(CNC(=O)C2CCc3c(sc4ncnc(Nc5ccc6[nH]ncc6c5)c34)C2)c1` (stereo not shown) [Example 20, 4-(1H-indazol-5-ylamino)-N-(3-methylbenzyl)-5,6,7,8-tetrahydro[1] benzothieno [2,3-d]pyrimidine-7-carboxamide], in that order: 8.70 and 6.46.
In the case of `O=C(NCc1ccccc1)C1CCc2c(sc3ncnc(Nc4ccc5[nH]ncc5c4)c23)C1` (stereo not shown) [Example 21, N-Benzyl-4-(1H-indazol-5-ylamino)-5,6,7,8-tetrahydro[1] benzothieno [2,3-d]pyrimidine-7-carboxamide], the pIC50 on human full-length MKNK1 was 8.52; in test [1], 6.42.
On the same counts, the results for `CCNC(=O)C1CCc2c(sc3ncnc(Nc4cc5cn[nH]c5cc4OC)c23)C1` (stereo not shown) [Example 58, N-Ethyl-4-[(6-methoxy-1H-indazol-5-yl)amino]-5,6,7,8-tetrahydro[1]benzothieno[2,3-d]pyrimidine-7-carboxamide] are 9.15 and 6.69.
Regarding `Cc1c(C(=O)NCCCN(C)C)sc2ncnc(Nc3ccc(F)cc3OC(C)C)c12` [Ref, N-[3-(dimethylamino)propyl]-4-[(4-fluoro-2-isopropoxyphenyl)amino]-5-methylthieno[2,3-d]pyrimidine-6-carboxamide, reference compound], the negative logarithm of the IC50 (pIC50) on human full-length MKNK1 is 8.01. In test [2], the “Fraction number of 221 kinases with remaining activity >30% and <80%” value is recorded as 10/221; the “Fraction number of 221 kinases with remaining activity ≦30%” value was 9/221; the “Fraction number of 221 kinases with remaining activity ≧80%” value is recorded as 202/221. Moreover, the pIC50 in test [1] is 6.36.
